# According to ChEMBL document CHEMBL1145766, “2-(Anilinomethyl)imidazolines as alpha1 adrenergic receptor agonists: alpha1a subtype selective 2'-heteroaryl compounds” (Bioorg Med Chem Lett, 2003):
# Experiments:
# [1] = target: T1, Alpha-1D adrenergic receptor (Homo sapiens) (UniProt P25100); assay: Maximal response via calcium mobilization towards Human Alpha-1D adrenergic receptor as percent rtelative to […] phenylephrine; format: functional
# T1 sequence (whole entry): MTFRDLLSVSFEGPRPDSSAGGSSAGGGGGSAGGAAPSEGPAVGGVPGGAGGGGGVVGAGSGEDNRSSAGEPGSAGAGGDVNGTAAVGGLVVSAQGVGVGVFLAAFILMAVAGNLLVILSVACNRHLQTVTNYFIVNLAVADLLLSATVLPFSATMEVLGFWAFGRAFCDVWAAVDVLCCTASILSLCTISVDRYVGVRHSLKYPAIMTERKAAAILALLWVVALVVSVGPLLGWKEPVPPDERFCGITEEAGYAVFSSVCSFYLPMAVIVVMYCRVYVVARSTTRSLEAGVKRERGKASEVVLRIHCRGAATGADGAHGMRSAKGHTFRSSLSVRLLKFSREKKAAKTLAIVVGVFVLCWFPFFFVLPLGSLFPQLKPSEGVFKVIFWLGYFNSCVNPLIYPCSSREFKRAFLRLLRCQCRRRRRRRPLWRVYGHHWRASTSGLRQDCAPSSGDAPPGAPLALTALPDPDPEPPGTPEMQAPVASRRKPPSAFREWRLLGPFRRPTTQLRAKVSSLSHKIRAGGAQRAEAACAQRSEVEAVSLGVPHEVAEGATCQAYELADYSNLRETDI
# [2] = target: T2, Alpha-1D adrenergic receptor (Homo sapiens, UniProt P25100); assay: Agonism of recombinant human alpha-1D adrenergic receptor, expressed in rat 1 fibroblast cells; format: functional, cell-based
# T2 sequence (P25100 whole entry): T1 sequence (whole entry)
# [3] = target: T3, Alpha-1A adrenergic receptor (Homo sapiens) (UniProt P35348); assay: Maximal response assayed via calcium mobilization to the human alpha-1A adrenergic receptor compared the percent of the […] phenylephrine response; format: functional
# T3 sequence (whole entry): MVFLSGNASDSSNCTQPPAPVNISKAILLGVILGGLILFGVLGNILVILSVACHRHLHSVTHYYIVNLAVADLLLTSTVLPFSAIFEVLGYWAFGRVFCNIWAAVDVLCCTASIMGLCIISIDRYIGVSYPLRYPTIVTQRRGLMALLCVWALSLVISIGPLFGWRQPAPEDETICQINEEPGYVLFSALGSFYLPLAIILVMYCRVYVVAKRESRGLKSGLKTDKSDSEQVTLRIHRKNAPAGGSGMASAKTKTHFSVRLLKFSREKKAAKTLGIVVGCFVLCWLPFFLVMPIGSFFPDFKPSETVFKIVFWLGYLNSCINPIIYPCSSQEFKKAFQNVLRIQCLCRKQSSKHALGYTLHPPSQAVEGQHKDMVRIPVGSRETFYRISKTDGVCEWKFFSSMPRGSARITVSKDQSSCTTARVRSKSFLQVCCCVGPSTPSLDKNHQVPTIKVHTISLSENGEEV
# [4] = target: T4, Alpha-1B adrenergic receptor (Homo sapiens, UniProt P35368); assay: Agonism of human alpha-1B adrenergic receptor, expressed in rat 1 fibroblast cells; format: functional, cell-based
# T4 sequence (P35368 whole entry): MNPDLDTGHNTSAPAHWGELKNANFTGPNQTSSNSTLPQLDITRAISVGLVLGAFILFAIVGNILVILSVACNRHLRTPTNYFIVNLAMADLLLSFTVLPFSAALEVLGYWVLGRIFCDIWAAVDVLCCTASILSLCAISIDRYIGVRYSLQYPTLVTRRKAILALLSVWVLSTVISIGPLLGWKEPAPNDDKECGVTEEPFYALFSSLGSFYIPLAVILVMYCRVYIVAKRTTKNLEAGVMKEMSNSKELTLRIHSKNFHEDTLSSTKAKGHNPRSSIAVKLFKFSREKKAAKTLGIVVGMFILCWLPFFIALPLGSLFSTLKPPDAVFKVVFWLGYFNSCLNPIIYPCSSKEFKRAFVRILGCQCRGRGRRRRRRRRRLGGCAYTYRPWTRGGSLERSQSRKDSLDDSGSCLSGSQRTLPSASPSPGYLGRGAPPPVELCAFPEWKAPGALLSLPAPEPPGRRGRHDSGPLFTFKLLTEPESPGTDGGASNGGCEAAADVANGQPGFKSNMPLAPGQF
# [5] = target: T5, Alpha-1B adrenergic receptor (Homo sapiens) (UniProt P35368); assay: Maximal response assayed via calcium mobilization to human alpha-1B adrenergic receptor compared to percent of the […] phenylephrine response.; format: functional
# T5 sequence (whole entry): T4 sequence (P35368 whole entry)
# [6] = target: T6, Alpha-1A adrenergic receptor (Homo sapiens, UniProt P35348); assay: Agonism of human alpha-1A adrenergic receptor expressed in rat 1 fibroblast cells; format: functional, cell-based
# T6 sequence (P35348 whole entry): T3 sequence (whole entry)
# [7] = target: T1, Alpha-1D adrenergic receptor (Homo sapiens); assay: Maximal response via calcium mobilization towards Human Alpha-1D adrenergic receptor as percent relative to […] phenylephrine; format: functional
# [8] = target: T2, Alpha-1D adrenergic receptor; assay: Inhibitory concentration against radioligand binding to human aAlpha-1D adrenergic receptor, expressed in rat 1 fibroblast cells; format: cell-based
# [9] = target: T4, Alpha-1B adrenergic receptor; assay: Inhibitory concentration against radioligand binding to human Alpha-1B adrenergic receptor, expressed in rat 1 fibroblast cells; format: cell-based
# [10] = target: T6, Alpha-1A adrenergic receptor; assay: Inhibitory concentration against radioligand binding to human Alpha-1A adrenergic receptor, expressed in rat 1 fibroblast cells; format: cell-based
# [11] = target: T2, Alpha-1D adrenergic receptor; assay: Inhibitory concentration against radioligand binding to human Alpha-1D adrenergic receptor, expressed in rat 1 fibroblast cells; format: cell-based
Structure (SMILES),Max response [1] [%],EC50 [2] [nM],Max response [3] [%],EC50 [4] [nM],Max response [5] [%],EC50 [6] [nM],Max response [7] [%],IC50 [8] [nM],IC50 [9] [nM],IC50 [10] [nM],IC50 [11] [nM]
FC(F)(F)Cn1ncnc1-c1ccccc1NCC1=NCCN1,0,> 100000,91,> 100000,0,79.4,,,,,
CC(C)n1ncnc1-c1ccccc1NCC1=NCCN1,37,3160,104,> 100000,0,6.31,,,,,
CCn1ncnc1-c1ccccc1NCC1=NCCN1,55,126,107,63.1,94,1.26,,,,,
CCCn1nccc1-c1ccccc1NCC1=NCCN1,,> 100000,59,> 100000,0,251,0,,,,
CCn1cc(-c2ccccc2NCC2=NCCN2)cn1,,> 100000,0,> 100000,0,> 100000,0,,,,
CC(C)n1nccc1-c1ccccc1NCC1=NCCN1,,> 100000,0,> 100000,0,> 100000,0,,,,
CCCCn1ncnc1-c1ccccc1NCC1=NCCN1,66,398,86,200,83,200,,,,,
CCCn1ncnc1-c1ccccc1NCC1=NCCN1,57,251,96,316,74,12.6,,,,,
c1ccc(-c2cn[nH]c2)c(NCC2=NCCN2)c1,,20,112,79.4,72,1.26,62,,,,
FC(F)(F)Cn1nccc1-c1ccccc1NCC1=NCCN1,,> 100000,76,> 100000,0,316,0,,,,
c1ccc(-c2nc[nH]n2)c(NCC2=NCCN2)c1,123,3.98,135,5.01,100,0.794,,,,,

# Now from value to compound:
Max response [1] [%],EC50 [2] [nM],Max response [3] [%],EC50 [4] [nM],Max response [5] [%],EC50 [6] [nM],Max response [7] [%],IC50 [8] [nM],IC50 [9] [nM],IC50 [10] [nM],IC50 [11] [nM],Structure (SMILES)
,> 100000,78,> 100000,0,25.1,0,,,,,CCn1ccc(-c2ccccc2NCC2=NCCN2)n1
0,> 5010,98,> 5010,0,1000,,,,,,Cc1nc(-c2ccccc2NCC2=NCCN2)n(C)n1
,15.8,116,50.1,33,3.16,29,,,,,Cn1ccc(-c2ccccc2NCC2=NCCN2)n1
,251,103,> 100000,0,20,32,,,,,Cn1cccc1-c1ccccc1NCC1=NCCN1
,> 100000,78,> 100000,0,50.1,0,,,,,Cc1ccc(-c2ccccc2NCC2=NCCN2)n1C
,> 100000,81,> 100000,0,63.1,0,,,,,CCn1nccc1-c1ccccc1NCC1=NCCN1
116,63.1,91,39.8,93,2,,,,,,Cn1ncnc1-c1ccccc1NCC1=NCCN1
54,20,104,5.01,95,1,,39.8,158,25.1,,c1ccc(-c2cc[nH]n2)c(NCC2=NCCN2)c1
,> 100000,93,> 100000,0,2.51,0,,,,,CCn1cccc1-c1ccccc1NCC1=NCCN1
0,> 5010,87,> 5010,0,794,,,,,,Cc1n[nH]c(-c2ccccc2NCC2=NCCN2)n1
,200,88,39.8,104,6.31,92,,,,,Cn1ccnc1-c1ccccc1NCC1=NCCN1
,> 100000,39,> 100000,0,398,0,,,,,Cn1cc(-c2ccccc2NCC2=NCCN2)cn1
,> 100000,108,> 100000,0,10,0,,398,200,501,Cn1nccc1-c1ccccc1NCC1=NCCN1
